Measurements as given in article PMC10017709, “Structural basis of selective cannabinoid CB2 receptor activation” (Nature Communications, 2023).
Values joined by “and” are separate entries in the source; they are usually repeats but may differ in a detail not shown here. Equal entries are not always repeated.

Legend:
hCB1R WT [1] = biological target: T1, hCB1R WT (Homo sapiens, UniProt P21554); assay: [35S]GTPγS G protein activation assay, CB1R WT; type: biochemical; conditions: CB1R WT; 10 µM agonist
CB1R I267ECL2L [2] = biological target: T2, CB1R I267ECL2L (Homo sapiens, UniProt P21554, I267L); assay: [35S]GTPγS assay, CB1R I267L mutant; type: biochemical; conditions: CB1R I267L; 10 µM agonist
CB2R-S285^7.39A = CB2R-S285^7.39A (Homo sapiens, UniProt P34972, S285A); assay: [35S]GTPγS assay, CB2R S285A mutant; type: biochemical
CB2R-I110^3.29L = CB2R-I110^3.29L (Homo sapiens, UniProt P34972, I110L); assay: [35S]GTPγS assay, CB2R I110L mutant; type: biochemical; conditions: for [35S]GTPγS binding: I1103.29L, individual replicates
CB1R D266ECL2E [3] = biological target: T3, CB1R D266ECL2E (Homo sapiens, UniProt P21554, D266E); assay: [35S]GTPγS assay, CB1R D266E mutant; type: biochemical; conditions: CB1R D266E; 10 µM agonist
T3 construct: The WT CB1R and CB2R genes were subcloned into vector pcDNA3.1; HA signal peptide (N); expressed in transfected cells; host or cells: HEK293T (transient, membrane homogenates)

CB2R-V261^6.51L = CB2R-V261^6.51L (Homo sapiens, UniProt P34972, V261L); assay: [35S]GTPγS assay, CB2R V261L mutant; type: biochemical; conditions: for [35S]GTPγS binding: V2616.51L, individual replicates
CB1R-H270^ECL2L [4] = biological target: T4, CB1R-H270^ECL2L (Homo sapiens, UniProt P21554, H270L); assay: [3H]CP55,940 displacement assay, CB1R H270L mutant; type: binding
CB2R-F117^3.36A = CB2R-F117^3.36A (Homo sapiens, UniProt P34972, F117A); assay: [35S]GTPγS assay, CB2R F117A mutant; type: biochemical
CB2R-I110^3.29A = CB2R-I110^3.29A (Homo sapiens, UniProt P34972, I110A); assay: [35S]GTPγS assay, CB2R I110A mutant; type: biochemical; conditions: for [35S]GTPγS binding: I1103.29A, individual replicates
CB1R-L359^6.51V = CB1R-L359^6.51V (Homo sapiens, UniProt P21554, L359V); assay: [3H]CP55,940 displacement assay, CB1R L359V mutant; type: binding
CB2R-Quadruple^TM1,7 = CB2R-Quadruple^TM1,7 (Homo sapiens, UniProt P34972, C40S/K279T/K33Q/V36I); assay: [35S]GTPγS assay, CB2R quadruple mutant; type: biochemical
CB1R QuadrupleTM1,7 [5] = assay: [35S]GTPγS assay, CB1R quadruple mutant; type: biochemical, human; conditions: CB1R Quadruple TM1,7; 10 µM agonist
hCB1R WT [6] = biological target: T1, hCB1R WT; assay: [3H]CP55,940 displacement assay, CB1R WT; type: binding
CB1R-H270^ECL2L [7] = biological target: T4, CB1R-H270^ECL2L; assay: [35S]GTPγS assay, CB1R H270L mutant; type: biochemical; conditions: CB1R H270L; 10 µM agonist
CB2R-L182^ECL2I = CB2R-L182^ECL2I (Homo sapiens, UniProt P34972, L182I); assay: [35S]GTPγS assay, CB2R L182I mutant; type: biochemical
hCB2R = biological target: T5, hCB2R (Homo sapiens, UniProt P34972); assay: [3H]RO6957022 competition association assay; type: binding
T5 construct: host or cells: CHO-K1 (CHOK1_hCB2bgal, PathHunter), membranes

CB1R QuadrupleTM1,7 [8] = biological target: T6, CB1R QuadrupleTM1,7 (Homo sapiens, UniProt P21554, I119V/Q116K/S123C/T377K); assay: [3H]CP55,940 displacement assay, CB1R quadruple mutant; type: binding
T6 construct: The WT CB1R and CB2R genes were subcloned into vector pcDNA3.1; HA signal peptide (N); expressed in transfected cells; host or cells: HEK293T (transient, membrane homogenates)

CB2R-L185^ECL2H = CB2R-L185^ECL2H (Homo sapiens, UniProt P34972, L185H); assay: [35S]GTPγS assay, CB2R L185H mutant; type: biochemical
CB2R-H95^2.65A = CB2R-H95^2.65A (Homo sapiens, UniProt P34972, H95A); assay: [35S]GTPγS assay, CB2R H95A mutant; type: biochemical
CB2R WT = CB2R WT (Homo sapiens, UniProt P34972); assay: [35S]GTPγS G protein activation assay, CB2R WT; type: biochemical; conditions: for Emax: CB2R WT
CB1R D266ECL2E [9] = biological target: T3, CB1R D266ECL2E; assay: [3H]CP55,940 displacement assay, CB1R D266E mutant; type: binding
CB1R I267ECL2L [10] = biological target: T2, CB1R I267ECL2L; assay: [3H]CP55,940 displacement assay, CB1R I267L mutant; type: binding
CB2R-E181^ECL2D = CB2R-E181^ECL2D (Homo sapiens, UniProt P34972, E181D); assay: [35S]GTPγS assay, CB2R E181D mutant; type: biochemical
Chain of CB2R-E181^ECL2D (P34972 whole entry E181D): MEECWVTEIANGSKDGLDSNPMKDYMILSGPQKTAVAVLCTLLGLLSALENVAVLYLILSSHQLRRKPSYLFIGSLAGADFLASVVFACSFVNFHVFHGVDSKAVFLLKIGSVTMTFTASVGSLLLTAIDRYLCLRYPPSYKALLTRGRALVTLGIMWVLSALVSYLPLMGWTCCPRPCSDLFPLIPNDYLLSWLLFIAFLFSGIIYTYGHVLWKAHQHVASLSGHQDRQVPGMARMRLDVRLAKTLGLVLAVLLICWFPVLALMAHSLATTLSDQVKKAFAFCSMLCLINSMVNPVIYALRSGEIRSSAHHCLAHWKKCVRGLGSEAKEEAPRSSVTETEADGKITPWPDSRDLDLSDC

Chain of CB2R-I110^3.29L (P34972 whole entry I110L): as the sequence (P34972 whole entry E181D) above, with I110L, D181E counted along it
Chain of CB2R WT (P34972 whole entry): as the sequence (P34972 whole entry E181D) above, with D181E counted along it
Chain of CB2R-S285^7.39A (P34972 whole entry S285A): as the sequence (P34972 whole entry E181D) above, with D181E, S285A counted along it
T1 sequence (P21554 whole entry): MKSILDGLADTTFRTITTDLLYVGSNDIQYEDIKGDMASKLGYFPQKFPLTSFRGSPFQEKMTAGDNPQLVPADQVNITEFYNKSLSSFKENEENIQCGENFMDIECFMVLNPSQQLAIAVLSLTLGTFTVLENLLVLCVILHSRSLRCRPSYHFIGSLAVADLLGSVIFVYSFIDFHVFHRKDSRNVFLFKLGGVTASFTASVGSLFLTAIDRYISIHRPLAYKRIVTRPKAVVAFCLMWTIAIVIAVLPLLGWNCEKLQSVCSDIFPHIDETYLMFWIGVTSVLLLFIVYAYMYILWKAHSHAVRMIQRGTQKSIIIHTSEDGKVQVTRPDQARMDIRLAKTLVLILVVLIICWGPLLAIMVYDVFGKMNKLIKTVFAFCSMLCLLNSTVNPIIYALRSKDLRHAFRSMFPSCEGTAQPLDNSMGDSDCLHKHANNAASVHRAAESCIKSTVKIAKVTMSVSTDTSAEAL
Chain of CB2R-I110^3.29A (P34972 whole entry I110A): as the sequence (P34972 whole entry E181D) above, with I110A, D181E counted along it
T6 sequence (P21554 whole entry Q116K/I119V/S123C/T377K): as the sequence (P21554 whole entry) above, with Q116K, I119V, S123C, T377K counted along it
Chain of CB2R-F117^3.36A (P34972 whole entry F117A): as the sequence (P34972 whole entry E181D) above, with F117A, D181E counted along it
T3 sequence (P21554 whole entry D266E): as the sequence (P21554 whole entry) above, with D266E counted along it
T2 sequence (P21554 whole entry I267L): as the sequence (P21554 whole entry) above, with I267L counted along it
T4 sequence (P21554 whole entry H270L): as the sequence (P21554 whole entry) above, with H270L counted along it
Chain of CB1R-L359^6.51V (P21554 whole entry L359V): as the sequence (P21554 whole entry) above, with L359V counted along it
Chain of CB2R-V261^6.51L (P34972 whole entry V261L): as the sequence (P34972 whole entry E181D) above, with D181E, V261L counted along it
T5 sequence (P34972 whole entry): as the sequence (P34972 whole entry E181D) above, with D181E counted along it
Chain of CB2R-Quadruple^TM1,7 (P34972 whole entry K33Q/V36I/C40S/K279T): as the sequence (P34972 whole entry E181D) above, with K33Q, V36I, C40S, D181E, K279T counted along it
Chain of CB2R-L182^ECL2I (P34972 whole entry L182I): as the sequence (P34972 whole entry E181D) above, with D181E, L182I counted along it
Chain of CB2R-H95^2.65A (P34972 whole entry H95A): as the sequence (P34972 whole entry E181D) above, with H95A, D181E counted along it
Chain of CB2R-L185^ECL2H (P34972 whole entry L185H): as the sequence (P34972 whole entry E181D) above, with D181E, L185H counted along it

`CCCCCCC(C)(C)c1cc(OC)c([C@@H]2C=C(CO)[C@@H]3C[C@H]2C3(C)C)c(OC)c1` [HU308] gave an Agonist-mediated activation (hCB1R WT [1]) of 0.8 ± 0.0 fold over its basal, an Agonist-mediated activation (CB1R I267ECL2L [2]) of 0.8 ± 0.0 fold over its basal and an Emax (CB2R-S285^7.39A) of 65 ± 18%. For the same compound, the “loss in potency compared to WT” value (CB2R-S285^7.39A; S285A mutant vs WT, [35S]GTPγS) was 15 fold, the “Emax (%)” value (CB2R-S285^7.39A; S285A mutant, at 10 µM compared to WT) was “unaffected” and the Emax (CB2R-I110^3.29L) was 122 ± 12%. The “[35S]GTPγS binding” value (CB2R-I110^3.29L; log [ligand] (M) -5) was 144.00 percentage of WT and 101.90 percentage of WT and 119.46 percentage of WT, the “[35S]GTPγS binding” value (CB2R-I110^3.29L; log [ligand] (M) -6) was 62.70 percentage of WT and 56.80 percentage of WT and 71.03 percentage of WT and the “[35S]GTPγS binding” value (CB2R-I110^3.29L; log [ligand] (M) -7) was 34.90 percentage of WT and 47.80 percentage of WT and 66.79 percentage of WT. The “[35S]GTPγS binding” value (CB2R-I110^3.29L; log [ligand] (M) -8) was 0.30 percentage of WT and -7.00 percentage of WT and 4.82 percentage of WT, the “[35S]GTPγS binding” value (CB2R-I110^3.29L; log [ligand] (M) -9) was -41.10 percentage of WT and -11.80 percentage of WT and -14.01 percentage of WT and the “[35S]GTPγS binding” value (CB2R-I110^3.29L; log [ligand] (M) -10) was -13.40 percentage of WT and -17.60 percentage of WT and 8.27 percentage of WT. The Agonist-mediated activation (CB1R D266ECL2E [3]) was 0.8 ± 0.1 fold over its basal, the Emax (CB2R-V261^6.51L) was 26 ± 7% and the “drop in potency compared to WT” value (CB2R-V261^6.51L; V261L mutant vs WT, [35S]GTPγS) was “more than 120 fold”. The “[35S]GTPγS binding” value (CB2R-V261^6.51L; log [ligand] (M) -5) was 38.70 percentage of WT and 22.83 percentage of WT and 16.52 percentage of WT, the “[35S]GTPγS binding” value (CB2R-V261^6.51L; log [ligand] (M) -6) was 9.87 percentage of WT and 8.25 percentage of WT and -4.25 percentage of WT and the “[35S]GTPγS binding” value (CB2R-V261^6.51L; log [ligand] (M) -7) was 4.21 percentage of WT and 12.98 percentage of WT and 17.88 percentage of WT. For the same compound, the “[35S]GTPγS binding” value (CB2R-V261^6.51L; log [ligand] (M) -8) was 19.13 percentage of WT and 1.74 percentage of WT and -11.50 percentage of WT, the “[35S]GTPγS binding” value (CB2R-V261^6.51L; log [ligand] (M) -9) was 9.08 percentage of WT and 5.95 percentage of WT and 6.43 percentage of WT and the “[35S]GTPγS binding” value (CB2R-V261^6.51L; log [ligand] (M) -10) was 7.31 percentage of WT and 13.50 percentage of WT and 10.09 percentage of WT. The “Displacement (%) of [3H]CP55,940” value (CB1R-H270^ECL2L [4]) was 46 ± 3%, the “percentage specific [3H]CP55,940 binding” value (CB1R-H270^ECL2L [4]) was 48.81 percentage and 55.24 percentage and 57.51 percentage and the Emax (CB2R-F117^3.36A) was 5 ± 11%. The “[35S]GTPγS binding” value (CB2R-F117^3.36A; F1173.36A, log [ligand] (M) -5, individual replicates) was -12.18 percentage of WT and 25.21 percentage of WT and 1.54 percentage of WT, the Emax (CB2R-I110^3.29A) was 27 ± 10% and the “[35S]GTPγS binding” value (CB2R-I110^3.29A; log [ligand] (M) -5) was 7.61 percentage of WT and 53.50 percentage of WT and 22.50 percentage of WT and 24.96 percentage of WT. The “[35S]GTPγS binding” value (CB2R-I110^3.29A; log [ligand] (M) -6) was -2.63 percentage of WT and 15.83 percentage of WT and -2.10 percentage of WT and 11.35 percentage of WT, the “[35S]GTPγS binding” value (CB2R-I110^3.29A; log [ligand] (M) -7) was -21.19 percentage of WT and 26.20 percentage of WT and -0.60 percentage of WT and -1.65 percentage of WT and the “[35S]GTPγS binding” value (CB2R-I110^3.29A; log [ligand] (M) -8) was -20.10 percentage of WT and 21.60 percentage of WT and -13.80 percentage of WT and -17.12 percentage of WT. The “[35S]GTPγS binding” value (CB2R-I110^3.29A; log [ligand] (M) -9) was -21.53 percentage of WT and -16.40 percentage of WT and -20.30 percentage of WT and -26.64 percentage of WT, the “[35S]GTPγS binding” value (CB2R-I110^3.29A; log [ligand] (M) -10) was -16.86 percentage of WT and 2.60 percentage of WT and -15.20 percentage of WT and -22.40 percentage of WT and the “percentage specific [3H]CP55,940 binding” value (CB1R-L359^6.51V) was 49.24 percentage and 48.12 percentage and 78.61 percentage. The Emax (CB2R-Quadruple^TM1,7) was 1 ± 9%, the “activation of CB2R-Quadruple^TM1,7” value (CB2R-Quadruple^TM1,7) was “completely lost their ability to activate” and the Agonist-mediated activation (CB1R QuadrupleTM1,7 [5]) was 0.9 ± 0.0 fold over its basal. The “Displacement (%) of [3H]CP55,940” value (hCB1R WT [6]) was 6 ± 7%, the “percentage specific [3H]CP55,940 binding” value (hCB1R WT [6]) was 78.66 percentage and 99.84 percentage and 102.02 percentage and the Agonist-mediated activation (CB1R-H270^ECL2L [7]) was 1.2 ± 0.1 fold over its basal. The Emax (CB2R-L182^ECL2I) was 10 ± 7%, the “ET (engagement time)” value (hCB2R) was 143 s and 143 ± 47.9 s and the “Displacement (%) of [3H]CP55,940” value (CB1R QuadrupleTM1,7 [8]) was -13 ± 22%. For the same compound, the “percentage specific [3H]CP55,940 binding” value (CB1R QuadrupleTM1,7 [8]) was 134.56 percentage and 68.97 percentage and 134.64 percentage, the Emax (CB2R-L185^ECL2H) was 146 ± 8% and the Emax (CB2R-H95^2.65A) was 67 ± 16%. The Emax (CB2R WT; maximum effect at 10 µM compared to WT (Suppl. Table 6)) was 105 ± 3%, the Emax (CB2R WT; maximum effect compared to CP55,940) was 91 ± 8% and the “[35S]GTPγS binding, percentage of WT” value (CB2R WT; WT, log [ligand] (M) -10, individual replicates) was 12.69 percentage of WT and 0.12 percentage of WT and -18.99 percentage of WT and 12.94 percentage of WT and 1.90 percentage of WT and -10.30 percentage of WT and -18.00 percentage of WT and 0.09 percentage of WT and 9.81 percentage of WT and 3.21 percentage of WT. The “[35S]GTPγS binding, percentage of CP55,940” value (CB2R WT; log [agonist] (M) -5, individual replicates) was 84.84% and 81.20% and 107.18%, the “[35S]GTPγS binding, percentage of CP55,940” value (CB2R WT; log [agonist] (M) -6, individual replicates) was 42.88% and 70.07% and 64.55% and the “[35S]GTPγS binding, percentage of CP55,940” value (CB2R WT; log [agonist] (M) -7, individual replicates) was 59.80% and 30.89% and 31.02%. For the same compound, the “[35S]GTPγS binding, percentage of CP55,940” value (CB2R WT; log [agonist] (M) -8, individual replicates) was 26.43% and 5.08% and 10.60%, the “[35S]GTPγS binding, percentage of CP55,940” value (CB2R WT; log [agonist] (M) -9, individual replicates) was -10.38% and -5.63% and -15.53% and the “[35S]GTPγS binding, percentage of CP55,940” value (CB2R WT; log [agonist] (M) -10, individual replicates) was 1.23% and -8.38% and 14.06%. The “Displacement (%) of [3H]CP55,940” value (CB1R D266ECL2E [9]) was 34 ± 5%, the “percentage specific [3H]CP55,940 binding” value (CB1R D266ECL2E [9]) was 73.61 percentage and 56.25 percentage and 67.45 percentage and the “Displacement (%) of [3H]CP55,940” value (CB1R I267ECL2L [10]) was -7 ± 19%. The “percentage specific [3H]CP55,940 binding” value (CB1R I267ECL2L [10]) was 143.22 percentage and 82.61 percentage and 94.20 percentage and the Emax (CB2R-E181^ECL2D) was 32 ± 3%.
